Experimental data as given in article doi:10.1101/2021.04.08.439011v1 (biorxiv, 2021).
Where two headings read alike, the source gives them in different places.

Key:
ABL1(F317I) = ABL1(F317I) (Homo sapiens, UniProt P00519, F317I); details: 0.1 µM, binder
AKT3 = AKT3 (Homo sapiens, UniProt Q9Y243); details: 0.1 µM; binder
BMPR1A = BMPR1A (Homo sapiens, UniProt P36894); details: 0.1 µM; binder
BRSK1 = BRSK1 (Homo sapiens, UniProt Q8TDC3); details: 0.1 µM; binder
CDK9 = CDK9 (Homo sapiens, UniProt P50750); details: 0.1 µM; binder
CLK4 = CLK4 (Homo sapiens, UniProt Q9HAZ1); details: 0.1 µM; binder
CSNK1A1 = CSNK1A1 (Homo sapiens, UniProt P48729); details: 0.1 µM; binder
DYRK1A = DYRK1A (Homo sapiens, UniProt Q13627); details: 0.1 µM; binder
EPHB1 = EPHB1 (Homo sapiens, UniProt P54762); details: 0.1 µM; binder
ERBB2 = ERBB2 (Homo sapiens, UniProt P04626); details: 0.1 µM; binder
FLT1 = FLT1 (Homo sapiens, UniProt P17948); details: 0.1 µM; binder
FLT3(ITD,F691L) = FLT3(ITD,F691L) (Homo sapiens, UniProt P36888, F691L/ITD); details: 0.1 µM; binder
FLT4 = FLT4 (Homo sapiens, UniProt P35916); details: 0.1 µM; binder
HIPK3 = HIPK3 (Homo sapiens, UniProt Q9H422); details: 0.1 µM; binder
INSR = INSR (Homo sapiens, UniProt P06213); details: 0.1 µM; binder
INSRR = INSRR (Homo sapiens, UniProt P14616); details: 0.1 µM; binder
IRAK1 = IRAK1 (Homo sapiens, UniProt P51617); details: 0.1 µM; binder
IRAK3 = IRAK3 (Homo sapiens, UniProt Q9Y616); details: 0.1 µM; binder
KIT(D816H) = KIT(D816H) (Homo sapiens, UniProt P10721, D816H); details: 0.1 µM; binder
MAPKAPK2 = MAPKAPK2 (Homo sapiens, UniProt P49137); details: 0.1 µM; binder
MEK3 = MEK3 (Homo sapiens, UniProt P46734); details: 0.1 µM; binder
MLK1 = MLK1 (Homo sapiens, UniProt P80192); details: 0.1 µM; binder
NLK = NLK (Homo sapiens, UniProt Q9UBE8); details: 0.1 µM; binder
PIK3C2G = PIK3C2G (Homo sapiens, UniProt O75747); details: 0.1 µM; binder
PIK3CA(E545A) = PIK3CA(E545A) (Homo sapiens, UniProt P42336, E545A); details: 0.1 µM; binder
RET = RET (Homo sapiens, UniProt P07949); details: 0.1 µM; binder
SBK1 = SBK1 (Homo sapiens, UniProt Q52WX2); details: 0.1 µM; binder
SgK110 = SgK110 (Homo sapiens, UniProt P0C264); details: 0.1 µM; binder
TLK2 = TLK2 (Homo sapiens, UniProt Q86UE8); details: 0.1 µM; binder
YANK3 = YANK3 (Homo sapiens, UniProt Q86UX6); details: 0.1 µM; binder
p38-alpha = p38-alpha (Homo sapiens, UniProt Q16539); details: 0.1 µM; binder

Sequence of ABL1(F317I) (P00519 whole entry F317I): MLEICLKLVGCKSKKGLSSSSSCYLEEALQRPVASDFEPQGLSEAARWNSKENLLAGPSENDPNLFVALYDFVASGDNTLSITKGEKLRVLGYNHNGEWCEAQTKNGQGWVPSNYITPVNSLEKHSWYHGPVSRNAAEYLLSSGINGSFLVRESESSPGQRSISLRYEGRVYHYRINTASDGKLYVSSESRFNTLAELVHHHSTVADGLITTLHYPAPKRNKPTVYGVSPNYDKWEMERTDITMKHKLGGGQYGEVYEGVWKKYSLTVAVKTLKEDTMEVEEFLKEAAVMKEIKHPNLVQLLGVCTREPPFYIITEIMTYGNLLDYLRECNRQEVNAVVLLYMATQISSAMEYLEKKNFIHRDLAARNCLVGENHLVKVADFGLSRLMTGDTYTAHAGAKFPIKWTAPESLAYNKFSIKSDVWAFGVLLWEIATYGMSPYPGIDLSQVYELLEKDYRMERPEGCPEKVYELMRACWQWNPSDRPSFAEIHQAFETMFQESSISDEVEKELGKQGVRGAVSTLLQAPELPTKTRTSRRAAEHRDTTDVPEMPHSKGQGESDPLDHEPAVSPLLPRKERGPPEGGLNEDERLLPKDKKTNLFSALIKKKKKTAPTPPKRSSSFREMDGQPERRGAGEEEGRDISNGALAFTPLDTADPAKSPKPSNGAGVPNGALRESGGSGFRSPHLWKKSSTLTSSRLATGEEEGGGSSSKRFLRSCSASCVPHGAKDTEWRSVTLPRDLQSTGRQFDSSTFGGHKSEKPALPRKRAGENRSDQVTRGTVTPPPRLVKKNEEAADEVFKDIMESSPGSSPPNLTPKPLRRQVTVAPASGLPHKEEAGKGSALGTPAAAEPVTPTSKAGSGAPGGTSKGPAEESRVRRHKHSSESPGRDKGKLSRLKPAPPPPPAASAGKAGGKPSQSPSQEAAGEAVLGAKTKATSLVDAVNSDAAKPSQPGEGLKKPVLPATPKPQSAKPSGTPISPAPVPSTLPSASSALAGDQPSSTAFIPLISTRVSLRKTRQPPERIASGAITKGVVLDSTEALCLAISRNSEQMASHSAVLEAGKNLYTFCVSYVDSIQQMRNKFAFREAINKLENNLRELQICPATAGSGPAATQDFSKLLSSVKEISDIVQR
Sequence of BRSK1 (Q8TDC3 whole entry): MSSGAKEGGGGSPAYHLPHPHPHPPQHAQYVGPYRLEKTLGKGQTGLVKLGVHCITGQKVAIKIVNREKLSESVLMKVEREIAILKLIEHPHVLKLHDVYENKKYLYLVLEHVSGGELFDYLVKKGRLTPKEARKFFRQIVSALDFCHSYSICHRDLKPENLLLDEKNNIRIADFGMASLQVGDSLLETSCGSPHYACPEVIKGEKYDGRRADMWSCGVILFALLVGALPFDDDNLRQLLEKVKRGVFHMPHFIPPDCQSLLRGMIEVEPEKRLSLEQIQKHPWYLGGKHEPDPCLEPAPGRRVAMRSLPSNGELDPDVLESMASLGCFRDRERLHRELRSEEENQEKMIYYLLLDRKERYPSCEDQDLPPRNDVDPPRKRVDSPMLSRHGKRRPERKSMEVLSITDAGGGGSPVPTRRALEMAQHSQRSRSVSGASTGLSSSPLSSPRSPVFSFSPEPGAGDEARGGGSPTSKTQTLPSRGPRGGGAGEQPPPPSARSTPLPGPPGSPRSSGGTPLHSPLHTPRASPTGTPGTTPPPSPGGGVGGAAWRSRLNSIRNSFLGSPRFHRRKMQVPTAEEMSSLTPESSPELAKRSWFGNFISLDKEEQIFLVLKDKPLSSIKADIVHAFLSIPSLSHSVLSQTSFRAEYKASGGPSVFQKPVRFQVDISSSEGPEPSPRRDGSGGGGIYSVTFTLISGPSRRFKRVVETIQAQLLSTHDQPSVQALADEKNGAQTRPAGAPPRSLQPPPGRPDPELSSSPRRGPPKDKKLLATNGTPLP
Sequence of INSR (P06213 whole entry): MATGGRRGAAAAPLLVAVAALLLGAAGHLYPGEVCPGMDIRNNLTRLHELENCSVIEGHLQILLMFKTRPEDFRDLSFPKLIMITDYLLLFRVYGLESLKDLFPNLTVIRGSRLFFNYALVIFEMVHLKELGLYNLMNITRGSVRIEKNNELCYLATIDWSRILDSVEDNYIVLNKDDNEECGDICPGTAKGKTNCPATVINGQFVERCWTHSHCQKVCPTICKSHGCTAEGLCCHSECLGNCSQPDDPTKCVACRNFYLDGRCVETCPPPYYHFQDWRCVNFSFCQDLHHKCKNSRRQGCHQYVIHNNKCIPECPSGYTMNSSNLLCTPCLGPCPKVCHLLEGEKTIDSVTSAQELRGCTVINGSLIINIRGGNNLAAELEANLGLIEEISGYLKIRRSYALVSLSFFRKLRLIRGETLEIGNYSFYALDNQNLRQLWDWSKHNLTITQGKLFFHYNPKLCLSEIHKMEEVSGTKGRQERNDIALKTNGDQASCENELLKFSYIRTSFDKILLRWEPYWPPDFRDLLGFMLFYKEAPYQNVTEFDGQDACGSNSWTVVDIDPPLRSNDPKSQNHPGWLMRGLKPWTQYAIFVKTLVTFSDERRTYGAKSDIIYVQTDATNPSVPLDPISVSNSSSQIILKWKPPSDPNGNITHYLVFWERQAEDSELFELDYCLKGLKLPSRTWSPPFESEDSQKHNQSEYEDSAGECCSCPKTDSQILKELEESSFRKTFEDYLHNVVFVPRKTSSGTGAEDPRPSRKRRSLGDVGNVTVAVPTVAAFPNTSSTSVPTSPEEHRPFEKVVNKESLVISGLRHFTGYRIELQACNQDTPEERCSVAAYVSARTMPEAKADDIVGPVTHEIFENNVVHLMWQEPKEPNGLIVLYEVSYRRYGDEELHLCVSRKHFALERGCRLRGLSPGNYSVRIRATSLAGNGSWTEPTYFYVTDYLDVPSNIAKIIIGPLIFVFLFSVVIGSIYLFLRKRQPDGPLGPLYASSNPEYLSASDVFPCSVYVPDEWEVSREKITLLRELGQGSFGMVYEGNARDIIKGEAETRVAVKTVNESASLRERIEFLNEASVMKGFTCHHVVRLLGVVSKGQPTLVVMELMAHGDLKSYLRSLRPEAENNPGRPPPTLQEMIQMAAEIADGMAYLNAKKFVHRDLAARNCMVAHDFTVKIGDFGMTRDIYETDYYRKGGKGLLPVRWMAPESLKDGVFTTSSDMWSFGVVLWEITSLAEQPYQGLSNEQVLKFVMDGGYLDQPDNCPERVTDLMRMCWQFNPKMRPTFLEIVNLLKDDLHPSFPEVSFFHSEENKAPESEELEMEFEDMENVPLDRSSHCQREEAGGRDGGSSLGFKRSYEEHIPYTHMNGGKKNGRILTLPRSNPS
Sequence of MLK1 (P80192 whole entry): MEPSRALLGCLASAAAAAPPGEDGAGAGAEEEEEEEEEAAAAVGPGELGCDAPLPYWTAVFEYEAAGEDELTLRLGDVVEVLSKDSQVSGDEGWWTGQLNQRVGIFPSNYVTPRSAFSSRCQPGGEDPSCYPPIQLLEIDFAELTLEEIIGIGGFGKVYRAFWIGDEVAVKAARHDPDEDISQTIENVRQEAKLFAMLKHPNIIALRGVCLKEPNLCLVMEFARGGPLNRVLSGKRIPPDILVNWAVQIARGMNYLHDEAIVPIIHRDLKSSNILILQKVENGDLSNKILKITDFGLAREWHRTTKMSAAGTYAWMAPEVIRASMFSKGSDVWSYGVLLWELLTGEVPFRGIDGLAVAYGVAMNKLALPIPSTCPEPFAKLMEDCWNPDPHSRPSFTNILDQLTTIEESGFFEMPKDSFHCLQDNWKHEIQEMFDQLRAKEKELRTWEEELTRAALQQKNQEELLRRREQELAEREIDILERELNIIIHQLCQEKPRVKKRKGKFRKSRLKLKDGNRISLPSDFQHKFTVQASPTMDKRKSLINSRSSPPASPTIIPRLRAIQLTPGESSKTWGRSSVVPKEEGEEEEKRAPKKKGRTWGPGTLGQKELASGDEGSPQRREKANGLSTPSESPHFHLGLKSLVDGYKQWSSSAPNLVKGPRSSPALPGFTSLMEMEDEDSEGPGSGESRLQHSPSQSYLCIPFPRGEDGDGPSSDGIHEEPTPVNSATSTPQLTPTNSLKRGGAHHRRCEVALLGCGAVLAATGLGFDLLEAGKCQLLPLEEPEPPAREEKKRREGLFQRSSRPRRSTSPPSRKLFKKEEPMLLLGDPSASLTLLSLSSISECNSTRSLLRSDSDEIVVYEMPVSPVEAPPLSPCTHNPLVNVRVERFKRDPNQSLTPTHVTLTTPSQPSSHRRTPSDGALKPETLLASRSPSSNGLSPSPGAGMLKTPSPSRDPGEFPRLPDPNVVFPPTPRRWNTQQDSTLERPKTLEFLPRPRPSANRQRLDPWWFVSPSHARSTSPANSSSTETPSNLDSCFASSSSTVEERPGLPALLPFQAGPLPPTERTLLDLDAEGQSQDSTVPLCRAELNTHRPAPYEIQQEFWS
Sequence of CLK4 (Q9HAZ1 whole entry): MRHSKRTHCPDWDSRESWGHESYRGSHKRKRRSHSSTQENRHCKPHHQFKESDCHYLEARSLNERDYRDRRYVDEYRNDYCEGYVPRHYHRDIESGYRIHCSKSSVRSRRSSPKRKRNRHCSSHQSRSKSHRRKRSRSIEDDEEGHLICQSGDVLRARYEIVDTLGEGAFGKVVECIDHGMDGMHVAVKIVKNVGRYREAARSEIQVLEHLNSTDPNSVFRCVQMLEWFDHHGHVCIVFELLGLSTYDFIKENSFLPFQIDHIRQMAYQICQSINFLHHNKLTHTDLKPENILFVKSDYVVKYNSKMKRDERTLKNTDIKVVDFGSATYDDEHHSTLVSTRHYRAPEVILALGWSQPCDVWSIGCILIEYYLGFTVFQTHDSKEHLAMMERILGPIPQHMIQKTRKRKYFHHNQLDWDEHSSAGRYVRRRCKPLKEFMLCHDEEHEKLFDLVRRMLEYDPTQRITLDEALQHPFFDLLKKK

CNc1ncc2cc(-c3ccc(-c4cccc(C)n4)cc3Cl)c(=O)n(C[C@H]3OC[C@H](N)CO3)c2n1 [compound 6, G-5555]
Percent Control (ABL1(F317I); nonphosphorylated): 100% | Percent Control (ABL1(F317I); phosphorylated): 87% | Percent Control (AKT3): 95% | Percent Control (BMPR1A): 90% | Percent Control (BRSK1): 100% | Percent Control (CDK9): 100% | Percent Control (CLK4): 97% | Percent Control (CSNK1A1): 100% | Percent Control (DYRK1A): 100% | Percent Control (EPHB1): 100% | Percent Control (ERBB2): 100% | Percent Control (FLT1): 94% | Percent Control (FLT3(ITD,F691L)): 56% | Percent Control (FLT4): 100% | Percent Control (HIPK3): 86% | Percent Control (INSR): 95% | Percent Control (INSRR): 100% | Percent Control (IRAK1): 97% | Percent Control (IRAK3): 95% | Percent Control (KIT(D816H)): 100% | Percent Control (MAPKAPK2): 100% | Percent Control (MEK3): 75% | Percent Control (MLK1): 100% | Percent Control (NLK): 73% | Percent Control (PIK3C2G): 95% | Percent Control (PIK3CA(E545A)): 88% | Percent Control (RET): 96% | Percent Control (SBK1): 98% | Percent Control (SgK110): 56% | Percent Control (TLK2): 100% | Percent Control (YANK3): 99% | Percent Control (p38-alpha): 100%
